{
  "source": "patent US8338426B2",
  "about": "“Piperazinyl derivatives useful as modulators of the neuropeptide Y2 receptor” (Janssen Pharmaceutica NV, priority 2007, dated 2012)",
  "target": "T1, hY2 (Homo sapiens, UniProt P49146)",
  "T1 construct": "KAN-Ts endogenously expressing Y2 receptors were used; endogenous in cells; host or cells: KAN-Ts cells stably expressing chimeric G proteins",
  "T1 sequence (P49146 1-381)": "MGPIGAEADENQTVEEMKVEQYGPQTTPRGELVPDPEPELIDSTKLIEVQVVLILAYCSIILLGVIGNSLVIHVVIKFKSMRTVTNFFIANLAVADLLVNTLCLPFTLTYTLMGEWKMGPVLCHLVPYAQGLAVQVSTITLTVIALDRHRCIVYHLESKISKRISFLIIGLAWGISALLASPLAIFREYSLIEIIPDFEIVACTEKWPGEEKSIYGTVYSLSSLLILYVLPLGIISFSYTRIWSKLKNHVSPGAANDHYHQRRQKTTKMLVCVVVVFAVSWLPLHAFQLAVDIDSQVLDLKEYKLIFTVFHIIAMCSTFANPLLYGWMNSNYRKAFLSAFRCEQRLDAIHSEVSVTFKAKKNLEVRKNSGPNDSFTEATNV",
  "assay": "Ca2+ mobilization assay (FLIPR) in KAN-Ts cells",
  "assay_type": "cell-based",
  "details": "KANT-S cells, inhibition of PYY stimulated Ca2+ increase, read-out: hY2 pKB (converted)",
  "protocol": "The assay was performed using the fluorimetric imaging plate reader (FLIPR) format as described in Dautzenberg, F. M., Biochemical Pharmacology 2005, 69, 1493.\nKAN-Ts cells stably expressing chimeric G proteins were seeded at a density of 100,000 cells into poly-d-lysine coated 384-well blackwall, clear-bottom microtiter plates (Corning, N.Y.). One day later, the medium was removed and 50 μl loading medium DMEM high glucose, without serum, supplemented with 10 mM HEPES-acid, 0.1% BSA, 5 mM probenecid and 2 μM Fluo-3AM was added. Cells were loaded for 1 h at 37° C., washed twice with 50 μl assay buffer (5 mM HEPES-acid, 140 mM NaCl, 1 mM MgCl2, 5 mM KCl, 10 mM glucose) and then 30 μl assay buffer was added. Cells were further pre-incubated at room temperature before adding agonists or agonists plus antagonists in 20 μl assay buffer and then measured on a T-channel fluorometric imaging plate reader (FLIPR, Molecular Devices, Sunnyvale, Calif.).\nAntagonistic potency values were converted to apparent pKB values using a modified Cheng-Prusoff correction. Apparent pKB=−log IC50/1+[conc agonist/EC50]. Data below are expressed as mean±S.E.M.\nThe in vitro antagonistic properties of the compound of formula (A) were confirmed using Ca^2+ measurement.",
  "data": [
    {"smiles": "CCN(CC)C(=O)C(c1ccccc1)N1CCN(c2ccc(NC(=O)c3ccccc3-c3cccnc3)cc2F)CC1", "note": "(racemic) [Cmpd (A), N-{4-[4-(Diethylcarbamoyl-phenyl-methyl)-piperazin-1-yl]-3-fluoro-phenyl}-2-pyridin-3-yl-benzamide]", "values": [
      {"measurement": "Kb", "value": 2.69, "unit": "nM"}
    ]}
  ]
}
